Columns and labels:
[1] = 6 month dry powder stability, HPLC assay; format: physicochemical
Excerpt: (§1) NUC-3373 prepared according to Example 3 and Comparative Example 4 was packed into a transparent LDPE bag which was then filled with nitrogen and tied with a strip seal. This bag was then placed into another transparent LDPE bag which was also filled with nitrogen. A silica gel packet was placed between the two bags before the outermost bag was tied with a strip seal. These bags were then placed in a triple laminated sun light barrier bag which was sealed with a heat sealer. The bags were kept in a HDPE container.
(§2) NUC-3373 was initially assayed by HPLC after manufacture (0 months) then after 1 and 2 and/or 3 and 6 months of storage at 2-8° C., 25° C. or 40° C.

[2] = 6 month dry powder stability, Alpha Naphthol content by HPLC; format: physicochemical
Excerpt: as §1, §2
The Alpha Naphthol content of the same batches was also determined by HPLC. The levels of the alpha naphthol impurity is a key indicator of stability of the tested material.

[3] = Solution stability, alpha naphthol (0.60 RRT) in DMA:Saline (80:20 v/v); format: physicochemical; parameters: 0.60 RRT (Alpha Naphthol): unit not given here; conditions: for 0.60 RRT (Alpha Naphthol): 400 mg/mL in DMA:Saline (80:20 v/v)
Protocol: Stability data is also provided in Table 4, which compares the levels of alpha naphthol (0.60 RRT) present in solutions of 400 mg/mL NUC-3373, prepared by Example 3 or 4, above, in DMA:Saline (80:20 v/v) at different temperatures measured over set periods of time. The tested solutions are suitable for infusion and injection and the temperatures and times measured are representative of the environments that solutions suitable for infusion and injection would typically be stored in.
In Table 4 the two values provided for each temperature at each time period, separated by “/”, represent different preparations (samples) of that synthesis.

[4] = 12 month dry powder stability, HPLC assay; format: physicochemical
Excerpt: as §1, with “3, above,” for “3 and Comparative Example 4”, “container. The NUC-3373 was initially assayed by HPLC after manufacture then after 3, 6, 9 and 12 months of storage.” for “container.”

[5] = Solution stability in DMA:Saline (80:20 v/v) by UPLC; format: physicochemical; conditions: 2-8° C.; for Assay / Purity / Total Impurities: DMA:Saline (80:20 v/v) solution, UPLC
Protocol: The inventors have found in further work that DMA:Saline (80:20 v/v) solutions of samples obtained according to the process of the invention show no loss of purity or assay, and alpha naphthol impurity up to 12 months at 2-8° C.

a range of cancer models = conditions: compared with 5-fluorouracil; cited from earlier work
tumour cells = conditions: non-clinical studies, compared with 5-FU and capecitabine; cited from earlier work
[6] = dog, compared with 5-FU; cited from earlier work

C[C@H](NP(=O)(OC[C@H]1O[C@@H](n2cc(F)c(=O)[nH]c2=O)CC1O)Oc1cccc2ccccc12)C(=O)OCc1ccccc1 (stereo partly drawn) [Example 3, Batch 2, 5-fluoro-2′-deoxyuridine-5′-O-[1-naphthyl (benzoxy-L-alaninyl)] phosphate]
Decrease after 6 months, HPLC assay ([1]; 2-8 ° C.): None
HPLC assay (% w/w on anhydrous and solvent free basis) ([1]; 2-8 ° C., 0 months): 100.2 % w/w
HPLC assay (% w/w on anhydrous and solvent free basis) ([1]; 2-8 ° C., 3 months): 101.3 % w/w
HPLC assay (% w/w on anhydrous and solvent free basis) ([1]; 2-8 ° C., 6 months): 100.4 % w/w
Decrease after 6 months, HPLC assay ([1]; 25 ° C.): None
HPLC assay (% w/w on anhydrous and solvent free basis) ([1]; 25 ° C., 0 months): 100.2 % w/w
HPLC assay (% w/w on anhydrous and solvent free basis) ([1]; 25 ° C., 3 months): 101.1 % w/w
HPLC assay (% w/w on anhydrous and solvent free basis) ([1]; 25 ° C., 6 months): 100.7 % w/w
Decrease after 6 months, HPLC assay ([1]; 40 ° C.): None
HPLC assay (% w/w on anhydrous and solvent free basis) ([1]; 40 ° C., 0 months): 100.2 % w/w
HPLC assay (% w/w on anhydrous and solvent free basis) ([1]; 40 ° C., 1 month): 99.7 % w/w
HPLC assay (% w/w on anhydrous and solvent free basis) ([1]; 40 ° C., 2 months): 100.9 % w/w
HPLC assay (% w/w on anhydrous and solvent free basis) ([1]; 40 ° C., 3 months): 101.5 % w/w
HPLC assay (% w/w on anhydrous and solvent free basis) ([1]; 40 ° C., 6 months): 100.4 % w/w
Increase after 6 months, Alpha Naphthol by HPLC ([2]; 2-8 ° C.): None
Alpha Naphthol by HPLC (% w/w) ([2]; 2-8 ° C., 0 months): 0.44 % w/w
Alpha Naphthol by HPLC (% w/w) ([2]; 2-8 ° C., 3 months): 0.46 % w/w
Alpha Naphthol by HPLC (% w/w) ([2]; 2-8 ° C., 6 months): 0.43 % w/w
Increase after 6 months, Alpha Naphthol by HPLC ([2]; 25 ° C.): None
Alpha Naphthol by HPLC (% w/w) ([2]; 25 ° C., 0 months): 0.44 % w/w
Alpha Naphthol by HPLC (% w/w) ([2]; 25 ° C., 3 months): 0.45 % w/w
Alpha Naphthol by HPLC (% w/w) ([2]; 25 ° C., 6 months): 0.42 % w/w
Increase after 6 months, Alpha Naphthol by HPLC ([2]; 40 ° C.): None
Alpha Naphthol by HPLC (% w/w) ([2]; 40 ° C., 0 months): 0.44 % w/w
Alpha Naphthol by HPLC (% w/w) ([2]; 40 ° C., 1 month): 0.44 % w/w
Alpha Naphthol by HPLC (% w/w) ([2]; 40 ° C., 2 months): 0.42 % w/w
Alpha Naphthol by HPLC (% w/w) ([2]; 40 ° C., 3 months): 0.42 % w/w
Alpha Naphthol by HPLC (% w/w) ([2]; 40 ° C., 6 months): 0.38 % w/w
0.60 RRT (Alpha Naphthol) ([3]; After 1 month at 2-8° C., first preparation (before "/")): 0.02/0.02
0.60 RRT (Alpha Naphthol) ([3]; After 1 month at 2-8° C., second preparation (after "/")): 0.02/0.02
0.60 RRT (Alpha Naphthol) ([3]; After 1 month at 25 ± 5° C., first preparation (before "/")): 0.04/0.04
0.60 RRT (Alpha Naphthol) ([3]; After 1 month at 25 ± 5° C., second preparation (after "/")): 0.04/0.04
0.60 RRT (Alpha Naphthol) ([3]; After 3 months at 2-8° C., first preparation (before "/")): 0.02/0.02
0.60 RRT (Alpha Naphthol) ([3]; After 3 months at 2-8° C., second preparation (after "/")): 0.02/0.02
0.60 RRT (Alpha Naphthol) ([3]; After 3 months at 25 ± 5° C., first preparation (before "/")): 0.11/0.11
0.60 RRT (Alpha Naphthol) ([3]; After 3 months at 25 ± 5° C., second preparation (after "/")): 0.11/0.11
0.60 RRT (Alpha Naphthol) ([3]; After 6 months at 2-8° C., first preparation (before "/")): 0.03
0.60 RRT (Alpha Naphthol) ([3]; After 6 months at 2-8° C., second preparation (after "/")): 0.02
0.60 RRT (Alpha Naphthol) ([3]; After 6 months at 25 ± 5° C., first preparation (before "/")): 0.34
0.60 RRT (Alpha Naphthol) ([3]; After 6 months at 25 ± 5° C., second preparation (after "/")): 0.35
0.60 RRT (Alpha Naphthol) ([3]; After 9 months at 2-8° C., first preparation (before "/")): 0.03/0.03
0.60 RRT (Alpha Naphthol) ([3]; After 9 months at 2-8° C., second preparation (after "/")): 0.03/0.03
0.60 RRT (Alpha Naphthol) ([3]; After 9 months at 25 ± 5° C., first preparation (before "/")): 0.89/0.89
0.60 RRT (Alpha Naphthol) ([3]; After 9 months at 25 ± 5° C., second preparation (after "/")): 0.89/0.89
0.60 RRT (Alpha Naphthol) ([3]; After 12 months at 2-8° C., first preparation (before "/")): 0.04/0.04
0.60 RRT (Alpha Naphthol) ([3]; After 12 months at 2-8° C., second preparation (after "/")): 0.04/0.04
0.60 RRT (Alpha Naphthol) ([3]; After 12 months at 25 ± 5° C., first preparation (before "/")): 1.60/1.60
0.60 RRT (Alpha Naphthol) ([3]; After 12 months at 25 ± 5° C., second preparation (after "/")): 1.60/1.60
0.60 RRT (Alpha Naphthol) ([3]; After 15 days at 2-8° C., first preparation (before "/")): 0.01/0.01
0.60 RRT (Alpha Naphthol) ([3]; After 15 days at 2-8° C., second preparation (after "/")): 0.01/0.01
0.60 RRT (Alpha Naphthol) ([3]; After 15 days at 25 ± 5° C., first preparation (before "/")): 0.03
0.60 RRT (Alpha Naphthol) ([3]; After 15 days at 25 ± 5° C., second preparation (after "/")): 0.02
0.60 RRT (Alpha Naphthol) ([3]; Initial): 0.01

C[C@H](NP(=O)(OC[C@H]1O[C@@H](n2cc(F)c(=O)[nH]c2=O)CC1O)Oc1cccc2ccccc12)C(=O)OCc1ccccc1 (stereo partly drawn) [NUC-3373, 5-fluoro-2′-deoxyuridine-5′-O-[1-naphthyl (benzoxy-L-alaninyl)] phosphate]
HPLC assay (% w/w on anhydrous and solvent free basis) ([4]; 5 ± 3° C., 3rd month): 99.9 % w/w
HPLC assay (% w/w on anhydrous and solvent free basis) ([4]; 5 ± 3° C., 6th month): 100.9 % w/w
HPLC assay (% w/w on anhydrous and solvent free basis) ([4]; 5 ± 3° C., 9th month): 101.5 % w/w
HPLC assay (% w/w on anhydrous and solvent free basis) ([4]; 5 ± 3° C., 12th month): 99.4 % w/w
HPLC assay (% w/w on anhydrous and solvent free basis) ([4]; 5 ± 3° C., Initial): 99.6 % w/w
HPLC assay (% w/w on anhydrous and solvent free basis) ([4]; 25 ± 2° C., 3rd month): 99.6 % w/w
HPLC assay (% w/w on anhydrous and solvent free basis) ([4]; 25 ± 2° C., 6th month): 100.7 % w/w
HPLC assay (% w/w on anhydrous and solvent free basis) ([4]; 25 ± 2° C., 9th month): 101.5 % w/w
HPLC assay (% w/w on anhydrous and solvent free basis) ([4]; 25 ± 2° C., 12th month): 99.4 % w/w
HPLC assay (% w/w on anhydrous and solvent free basis) ([4]; 25 ± 2° C., Initial): 99.6 % w/w
time chemically stable ([4]; at both 2-8° C. and 15-30° C.): at least 12 months
thermal stability compared with other methods of preparation ([1]; Tables 2 and 3, prepared according to the process of the invention): thermally more stable than those prepared by other methods
stability of solutions compared with other methods of preparation ([3]; solutions in DMA:Saline (80:20 v/v), particularly at room temperature): more stable than those prepared by other methods
Assay ([5]; 3rd month): 99%
Purity ([5]; 3rd month): 99.9%
Total Impurities ([5]; 3rd month): 0.07%
Assay ([5]; 6th month): 101%
Purity ([5]; 6th month): 99.9%
Total Impurities ([5]; 6th month): 0.08%
Assay ([5]; 12th month): 101%
Purity ([5]; 12th month): 99.9%
Total Impurities ([5]; 12th month): 0.09%
Assay ([5]; Initial): 101%
Purity ([5]; Initial): 99.9%
Total Impurities ([5]; Initial): 0.07%
time solutions chemically and physically stable ([5]; DMA:Saline (80:20 v/v) solutions): at least 12 months
activity in vitro against a range of cancer models (a range of cancer models): outstanding and far superior to the results obtained with 5-fluorouracil
inhibition of tumour cell growth (tumour cells): much greater inhibition of tumour cell growth
tolerability [6]: significantly better tolerated than 5-FU

From patent US20250296948A1, “SYNTHESIS OF NUCLEOSIDE DERIVATIVES” (Nucana plc, priority 2022, published 2025)
